Results on 18 molecules are retold here after US9085576B2 (AMGEN INC., priority 2013, dated 2015).

In one assay the target is BACE (Homo sapiens (Human), UniProt P56817). The assay is described as follows: In vitro BACE cell-based assay (Aβ40 in conditioned medium, sandwich ELISA).
For another assay, the target named is Cathepsin D (Cat D) (Homo sapiens (Human), UniProt P07339). The assay is described as follows: In vitro enzymatic Cathepsin D (Cat D) FRET assay. The following applies: read-out: CatD IC50. Format: biochemical.
The target of assay [1] is Beta Secretase enzyme (BACE) (Homo sapiens (Human), UniProt P56817). The assay is described as follows: In vitro enzymatic BACE FRET assay. Format: biochemical. The following applies: read-out: BACE1 Enzyme assay IC50.

Some results are limits rather than exact numbers.

Chain of Beta Secretase enzyme (BACE) (P56817 46-501): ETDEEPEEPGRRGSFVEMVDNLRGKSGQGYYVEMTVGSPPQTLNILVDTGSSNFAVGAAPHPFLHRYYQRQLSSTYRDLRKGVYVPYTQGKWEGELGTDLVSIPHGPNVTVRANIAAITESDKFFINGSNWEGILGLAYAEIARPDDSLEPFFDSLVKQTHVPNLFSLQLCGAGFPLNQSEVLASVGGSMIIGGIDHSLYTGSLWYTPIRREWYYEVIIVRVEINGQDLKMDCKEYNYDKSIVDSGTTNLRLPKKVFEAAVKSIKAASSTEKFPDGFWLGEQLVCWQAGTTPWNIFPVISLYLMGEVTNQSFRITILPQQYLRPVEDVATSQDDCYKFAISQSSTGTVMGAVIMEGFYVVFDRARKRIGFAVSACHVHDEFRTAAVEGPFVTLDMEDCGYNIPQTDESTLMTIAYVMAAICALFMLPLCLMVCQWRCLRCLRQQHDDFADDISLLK
Chain of BACE (P56817 46-501, species assumed): as the sequence (P56817 46-501) above
Chain of Cathepsin D (Cat D) (P07339 65-412, species assumed): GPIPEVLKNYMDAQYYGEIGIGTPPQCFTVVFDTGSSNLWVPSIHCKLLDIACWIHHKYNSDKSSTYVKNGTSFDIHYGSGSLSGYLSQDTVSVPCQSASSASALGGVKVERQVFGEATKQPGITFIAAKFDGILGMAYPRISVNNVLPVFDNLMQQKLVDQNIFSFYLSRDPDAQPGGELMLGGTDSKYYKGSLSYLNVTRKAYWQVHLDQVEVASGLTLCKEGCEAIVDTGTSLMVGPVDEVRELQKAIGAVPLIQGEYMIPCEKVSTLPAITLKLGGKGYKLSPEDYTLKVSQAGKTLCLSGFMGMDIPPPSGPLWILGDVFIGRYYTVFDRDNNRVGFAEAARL

As for `NC1=N[C@@](c2cc(NC(=O)C3(c4ccc(Cl)cc4)CCC3)ccc2F)(C(F)F)[C@H]2C[C@H]2O1` [Example 246, N-(3-((1R,5S,6R)-3-amino-5-(difluoromethyl)-2-oxa-4-azabicyclo[4.1.0]hept-3-en-5-yl)-4-fluorophenyl)-1-(4-chlorophenyl) cyclobutanecarboxamide], the results for the 50% inhibitory concentration (IC50) (against BACE; at Cathepsin D (Cat D); in assay [1]) were over 15.6 µM, 324 µM and over 40 µM, respectively.
In the case of `COCCC(=O)Nc1ccc(F)c([C@@]2(C(F)F)N=C(N)O[C@@H]3C[C@@H]32)c1` [Example 247, N-(3-((1R,5S,6R)-3-amino-5-(difluoromethyl)-2-oxa-4-azabicyclo[4.1.0]hept-3-en-5-yl)-4-fluorophenyl)-3-methoxypropanamide], the IC50 amounted to 4.34 µM against BACE, 486 µM at Cathepsin D (Cat D) and 25.5 µM in assay [1].
The matching figures for `Cn1cc(C(=O)Nc2ccc(F)c([C@@]3(C(F)F)N=C(N)O[C@@H]4C[C@@H]43)c2)ccc1=O` [Example 248, N-(3-((1R,5S,6R)-3-amino-5-(difluoromethyl)-2-oxa-4-azabicyclo[4.1.0]hept-3-en-5-yl)-4-fluorophenyl)-1-methyl-6-oxo-1,6-dihydropyridine-3-carboxamide]: over 15.6 µM, 1230 µM and 40.5 µM.
As for `Cn1ccc(C(=O)Nc2ccc(F)c([C@@]3(C(F)F)N=C(N)O[C@@H]4C[C@@H]43)c2)cc1=O` [Example 249, N-(3-((1R,5S,6R)-3-amino-5-(difluoromethyl)-2-oxa-4-azabicyclo[4.1.0]hept-3-en-5-yl)-4-fluorophenyl)-1-methyl-2-oxo-1,2-dihydropyridine-4-carboxamide], the IC50 at BACE is over 15.6 µM; at Cathepsin D (Cat D), 1590 µM; in assay [1] it was over 40 µM.
On to `NC1=N[C@@](c2cc(NC(=O)c3ccc(OCC#CC4CC4)cn3)ccc2F)(C(F)F)[C@H]2C[C@H]2O1` [Example 250, N-(3-((1R,5S,6R)-3-amino-5-(difluoromethyl)-2-oxa-4-azabicyclo[4.1.0]hept-3-en-5-yl)-4-fluorophenyl)-5-((3-cyclopropylprop-2-yn-1-yl)oxy)picolinamide], for which the half-maximal inhibitory concentration (IC50) was 0.603 µM against BACE, 77.5 µM at Cathepsin D (Cat D) and 0.0218 µM in assay [1].
As to `NC1=N[C@@](c2cc(NC(=O)CC(F)(F)F)ccc2F)(C(F)F)[C@H]2C[C@H]2O1` [Example 251, N-(3-((1R,5S,6R)-3-amino-5-(difluoromethyl)-2-oxa-4-azabicyclo[4.1.0]hept-3-en-5-yl)-4-fluorophenyl)-3,3,3-trifluoropropanamide], the concentration for half-maximal inhibition (IC50) is 2 µM against BACE, 190 µM at Cathepsin D (Cat D) and 4.7 µM in assay [1].
The like results for `CC(C)(C)OCC(=O)Nc1ccc(F)c([C@@]2(C(F)F)N=C(N)O[C@@H]3C[C@@H]32)c1` [Example 254, N-(3-((1R,5S,6R)-3-amino-5-(difluoromethyl)-2-oxa-4-azabicyclo[4.1.0]hept-3-en-5-yl)-4-fluorophenyl)-2-(tert-butoxy)acetamide] were, in that order, over 15.6 µM, 2560 µM and over 40 µM.
The matching figures for `COCCOCC(=O)Nc1ccc(F)c([C@@]2(C(F)F)N=C(N)O[C@@H]3C[C@@H]32)c1` [Example 255, N-(3-((1R,5S,6R)-3-amino-5-(difluoromethyl)-2-oxa-4-azabicyclo[4.1.0]hept-3-en-5-yl)-4-fluorophenyl)-2-(2-methoxyethoxy) acetamide]: over 15.6 µM, 666 µM and over 40 µM.
The matching figures for `NC1=N[C@@](c2cc(NC(=O)COc3ccccc3)ccc2F)(C(F)F)[C@H]2C[C@H]2O1` [Example 256, N-(3-((1R,5S,6R)-3-amino-5-(difluoromethyl)-2-oxa-4-azabicyclo[4.1.0]hept-3-en-5-yl)-4-fluorophenyl)-2-phenoxyacetamide]: 2.18 µM, 331 µM and 6.66 µM.
Turning to `NC1=N[C@@](c2cc(NC(=O)C3CC(=O)C3)ccc2F)(C(F)F)[C@H]2C[C@H]2O1` [Example 258, N-(3-((1R,5S,6R)-3-amino-5-(difluoromethyl)-2-oxa-4-azabicyclo[4.1.0]hept-3-en-5-yl)-4-fluorophenyl)-3-oxocyclobutane-carboxamide], the results for the IC50 (against BACE; on Cathepsin D (Cat D); in assay [1]) were 2.6 µM, 117 µM and 20.1 µM, respectively.
The matching figures for `NC1=N[C@@](c2cc(NC(=O)C3CC3)ccc2F)(C(F)F)[C@H]2C[C@H]2O1` [Example 260, N-(3-((1R,5S,6R)-3-amino-5-(difluoromethyl)-2-oxa-4-azabicyclo[4.1.0]hept-3-en-5-yl)-4-fluorophenyl) cyclopropanecarboxamide]: 3.19 µM, 104 µM and 5.17 µM.
The matching figures for `NC1=N[C@@](c2cc(NC(=O)c3cnc(Cl)cn3)ccc2F)(C(F)F)[C@H]2C[C@H]2O1` [Example 261, N-(3-((1R,5S,6R)-3-amino-5-(difluoromethyl)-2-oxa-4-azabicyclo[4.1.0]hept-3-en-5-yl)-4-fluorophenyl)-5-chloropyrazine-2-carboxamide]: 1.59 µM, 444 µM and 0.037 µM.
The matching figures for `NC1=N[C@@](c2cc(NC(=O)C#Cc3ccccc3)ccc2F)(C(F)F)[C@H]2C[C@H]2O1` [Example 262, N-(3-((1R,5S,6R)-3-amino-5-(difluoromethyl)-2-oxa-4-azabicyclo[4.1.0]hept-3-en-5-yl)-4-fluorophenyl)-3-phenylpropiolamide]: 0.144 µM, 204 µM and 0.245 µM.
For `NC1=N[C@](c2cccc(NC(=O)c3ccc(Cl)cn3)c2)(C(F)F)[C@@H]2C[C@@H]2O1` [Example 264, N-(3-((1 S,5R,6S)-3-amino-5-(difluoromethyl)-2-oxa-4-azabicyclo[4.1.0]hept-3-en-5-yl)phenyl)-5-chloropicolinamide], the concentration for half-maximal inhibition (IC50) is over 15.6 µM against BACE, over 400 µM on Cathepsin D (Cat D) and 35.9 µM in assay [1].
The matching figures for `Cc1cnc(C(=O)Nc2ccc(F)c([C@@]3(C(F)F)N=C(N)O[C@@H]4C[C@@H]43)c2)cn1` [Example 266, N-(3-((1R,5S,6R)-3-amino-5-(difluoromethyl)-2-oxa-4-azabicyclo[4.1.0]hept-3-en-5-yl)-4-fluorophenyl)-5-methylpyrazine-2-carboxamide]: 0.776 µM, 1160 µM and 0.817 µM.
The like results for `NC1=N[C@](CF)(c2cc(NC(=O)c3ccc(Cl)cn3)ccc2Cl)[C@H]2C[C@H]2O1` [Example 270, N-(3-((1R,5S,6R)-3-amino-5-(fluoromethyl)-2-oxa-4-azabicyclo[4.1.0]hept-3-en-5-yl)-4-chlorophenyl)-5-chloropicolinamide] were, in that order, 0.0122 µM, 646 µM and 0.0669 µM.
The like results for `COc1cnc(C(=O)Nc2ccc(Cl)c([C@@]3(CF)N=C(N)O[C@@H]4C[C@@H]43)c2)cn1` [Example 272] were, in that order, 0.0274 µM, 1730 µM and 0.143 µM.
Consider `COc1cnc(C(=O)Nc2ccc(Cl)c([C@]3(CF)N=C(N)O[C@H]4C[C@H]43)c2)cn1` [Example 273], for which the IC50 amounted to 2.66 µM on BACE, 1970 µM on Cathepsin D (Cat D) and 36.3 µM in assay [1].
